Reference: patent EP4523699A1, “ANTI-INFLAMMATORY DERMATOLOGICAL COMPOSITION COMPRISING GLYCEROPHOSPHOINOSITOL, A LACTOFERRIN HYDROLYSATE AND A CANNABINOID, IN PARTICULAR FOR TREATING SEBORRHEIC DERMATITIS” (FB Dermo srl, priority 2023, dated 2025)
Like-named read-outs stand apart in the source and are kept apart here.

Experiments:
Assay type in all cases: cell-based, human
IL-6 = assay: ELISA of IL-6 production in TNFα-inflamed HaCaT cells; conditions: TNFα 20 ng/ml overnight, then 24 hours of treatment
Description: Cell lines of immortalized human keratinocytes (HaCaT cells) were grown at 37 °C, 5% CO2 in DMEM culture medium, added with 1% non-essential aminoacids and 10% FBS. The cells were plated in 48-wells multi-well plates at 5*10^4 cells/ml, in 10% FBS DMEM. The day after, the culture medium was removed and substituted with 500 µL of complete medium without FBS and at the same time an inflammatory process was induced by treatment with TNFα 20 ng/ml, maintained over/night. This stimulus induces an increase in production of these cytokines compared to controls not receiving TNFα.
An experimental group of untreated cells was included, as a negative control of inflammation.
The following day, the inflamed cells were treated with each ingredient prepared in Example 1, at the highest non-toxic concentrations identified in Example 2. • Cannabidiol (CBD): 0.031 (w/v) • GPI lysine (GPI): 0.31 (w/v) • lactoferrin hydrolysate (LAC): 1 (w/v). […]
The dosage of the pro-inflammatory cytokine IL-6 (interleukin 6) was performed on 100 µL of each of the stored aliquots, following the kit protocol provided by the manufacturer. […] The anti-inflammatory effect of the compounds and compositions testes is expressed as a percentage of interleukin's production, with respect to inflamed cells (TNFα-treated) not subjected to anti-inflammatory treatment.

HaCaT cells = assay: MTT assay, cytotoxicity test on HaCaT cells; conditions: 24 hours
Description: (§1) Cells vitality is measured as absorbance after MTT treatment. Values are expressed as absorbance percentage over untreated (NT) cells; 1 mg/ml SDS is used as positive control; the boxes show the three highest non-toxic concentrations of each compound.
(§2) Cell lines of immortalized human keratinocyes (HaCaT cells) were grown at 37 °C, 5% CO2 in DMEM culture medium, added with 1% non-essential aminoacids and 10% FBS. The cells were plated in 96-wells multi-well plates at 10^4 cells/well, in 10% FBS -DMEM. The day after, the culture medium was removed and substituted with 100 µL of complete medium with 1% FBS; then, an MTT assay was carried out after treating cells with the single ingredients prepared in Example 1.
(§3) As positive control of toxicity, sodium dodecyl sulfate (SDS) was used, at the concentration of 1 mg/ml.
(§4) The cells were incubated for 24 hours at 37°C and 5% CO2.
(§5) At the end of each incubation, the reagent 3-(4,5-dimethylthiazol-2-yl)-2,5-diphenyltetrazolium bromide (MTT) was added to each well, at the final concentration of 0.45 mg/mL. The plates were then incubated for an additional 2 hours, at 37 °C and 5% CO2.
(§6) At the end of the incubation, the crystals of reduced MTT were solubilized by removing the medium and adding 100 µL of dimethyl sulfoxide (DMSO) to each well.
(§7) Finally, the absorbance at 595 nm of each sample was measured, using an Infinite M NANO+ (Tecan) plate reader.
(§8) The cell viability following treatment with the different substances was analyzed. Cell viability is expressed as percentage of absorbance at 595 nm of untreated cells (NT).

[1] = MTT assay, cytotoxicity test on HaCaT cells; conditions: human, hacat cells, percentage of untreated cells (NT), read-out: Cell viability
Description: as §1, §2, §3, §4, §5, §6, §7, §8

Structure (SMILES) | IL-6 production (% vs TNFα) Mean (IL-6; 0.031% (v/v)) | Cell viability (HaCaT cells; percentage of absorbance at 595 nm of untreated cells (NT), concentration 0.0313 % v/v) | Cell viability (HaCaT cells; percentage of untreated cells (NT), concentrations of 0.0156 - 0.001 % v/v) | activity at 0.03 % (IL-6; Homo sapiens, 0.03% (w/v)) | viability at 24 h ([1]; concentration 0.063 % w/v) | viability at 24 h ([1]; concentrations from 0.031 to 0.004 % w/v)
O=P(O)(OC[C@H](O)CO)OC1[C@H](O)[C@H](O)C(O)[C@H](O)[C@H]1O (stereo partly drawn) [GPI Lysine, glycerophosphoinositol] | 96 % vs TNFα | Above 50% | around 80% | – | – | –
C=C(C)[C@@H]1CCC(C)=C[C@H]1c1c(O)cc(CCCCC)cc1O [CBD, cannabidiol] | – | – | – | 99% | ~50% | ~80%
